Converted amounts (≈) assume the structure as drawn. Values belong to the molecule of their own block, whether it stands above or below them. *1 amine or outer side, *2 acyl side, *3 side chain or, on linkers, in order; H or OH if unused. Where a SMILES comes first, the peptide text is derived from it. [ ]: non-standard residue; d: D form. ξ: configuration not given here. ξβ3hGly(tridecyl) = CCCCCCCCCCCCCC(CC(=O)[*:2])N[*:1]; ξβ3hGly(undecyl) = CCCCCCCCCCCC(CC(=O)[*:2])N[*:1]; X2 = CC(C)CCCCCCCCC[C@H](CC(=O)[*:2])N[*:1]; X6 = CCC(C)CCCCCCCCCCC(CC(=O)[*:2])N[*:1]; X4 = CC(C)CCCCCCCCCCC(CC(=O)[*:2])N[*:1]; X3 = CCC(C)CCCCCCCCC(CC(=O)[*:2])N[*:1]; X5 = CCCCCCCCCCCCC(CC(=O)[*:2])N[*:1]
How the values were obtained:
[1] = test system: Candida albicans 7N; type: cell-based; settings: for MIC: 7N
Experimental: (§1) The microbicidal spectrum of iturin A, which is the active ingredient in the antifungal agent for profound mycosis of the present invention, may be obtained, for example, from the minimum growth inhibiting concentration (MIC) of iturin A to various fungi such as clinically-isolated strains, animal-infected fungi and others to be obtained on the basis of the method as designated by Japan Chemotherapy Association.
(§2) The antifungal activity of iturin A as produced in Example 1 was measured to identify its antifungal activity. Precisely, the minimum growth inhibiting concentration (MIC) of iturin A4 against fungi was measured on the basis of the method as designated by Japan Chemotherapy Association, and the results shown in Table 6 below were obtained.
In addition, MIC of each of iturin A2 to iturin A8 against Candida albicans 7N was measured in the same manner as above, and the results shown in Table 7 below were obtained.
Fungi used: Candida albicans 7N
Medium used: 0.5% Glucose, Yeastnitrogen base (made by DIFCO Co.)

[2] = test system: Candida albicans IFM 40002; assay: minimum growth inhibiting concentration (MIC); type: cell-based
Experimental: as §1, §2

[3] = test system: A. flavas IAM 2044; assay: minimum growth inhibiting concentration (MIC); type: cell-based
Experimental: as §1, §2

[4] = test system: Cryptococcus neoformans IFM 40043; assay: minimum growth inhibiting concentration (MIC); type: cell-based
Experimental: as §1, §2

[5] = test system: Aspergillus fumigatus Tsukuba No. 12; assay: minimum growth inhibiting concentration (MIC); type: cell-based
Experimental: as §1, §2

[6] = test system: Mucor guilliermondii IFO 9403; assay: minimum growth inhibiting concentration (MIC); type: cell-based
Experimental: as §1, §2

[7] = test system: C. tropicalis IFM 40018; assay: minimum growth inhibiting concentration (MIC); type: cell-based
Experimental: as §1, §2

[8] = test system: C. glabrata IFM 40065; assay: minimum growth inhibiting concentration (MIC); type: cell-based
Experimental: as §1, §2

[9] = test system: Candida albicans IFM 40001; assay: minimum growth inhibiting concentration (MIC); type: cell-based
Experimental: as §1, §2

[10] = test system: C. krusei IFM 40019; assay: minimum growth inhibiting concentration (MIC); type: cell-based
Experimental: as §1, §2

[11] = test system: Cryptococcus neoformans IFM 40038; assay: minimum growth inhibiting concentration (MIC); type: cell-based
Experimental: as §1, §2

[12] = Acute toxicity, plural intravenous injections; type: in vivo, ddy-N mice; settings: male mice, intravenous 30 mg/kg/day × 14 times
Experimental: (§3) In the next test, mice of the same kind as mentioned above were used. Iturin A4 was dissolved in DMSO(dimethylsulfoxide)-castor oil-5% Glc solution, and the resulting solution was injected to the caudal vein of each of the five male mice once or plural times. For the single injection, the solution was administered to the mice each in an amount of 200 mg per kg of the body weight; and for the plural injections, it was administered to them 14 times each in an amount of 30 mg/kg/day. After the injection(s), the time-dependent mortality of the test mice was observed and the results shown in Tables 10 and 11 below were obtained.

[13] = Acute Toxicity Test, oral single administration; type: in vivo, ddy-N mice; settings: for Mortality (%) / Time-Dependent Mortality: oral 2,000 mg/kg once; for Time-Dependent Mortality: day 1; for LD50 (mg/kg): oral single administration
Experimental: Iturin A4 obtained in Example 1 was dissolved in an injectable distilled water to prepare an aqueous 10% (w/v) solution of iturin A4 to be tested. The test solution was forcedly oral-administered once to five male and five female ddy-N mice, after having been fasted for 13 hours, by the use of a stomach probe. The test ddy-N mice were about 4-week age ones and were obtained from Nippon Medico-Chemical Animal Sources Laboratories Co., Ltd. Prior to the test, all the test mice were preliminarily bred in the laboratory for one week so as to confirm the healthy condition of them. Then, the about 5-week age mice were subjected to the test. The body weight of the test mice just before the test was 28 g (male mice) and from 18 to 22 g (female mice).
To each of the male and female mice, the test solution was administered in an amount of 20 ml per kg of the body weight, whereby 2,000 mg/kg of the test substance was administered to them.

[14] = Acute toxicity, single intravenous injection; type: in vivo, ddy-N mice; settings: male mice
Experimental: as §3

[15] = oral 2,000 mg/kg, male and female mice

SMILES: CCCCCCCCCCCCC1CC(=O)N[C@@H](CC(N)=O)C(=O)N[C@H](Cc2ccc(O)cc2)C(=O)N[C@H](CC(N)=O)C(=O)N[C@@H](CCC(N)=O)C(=O)N2CCC[C@H]2C(=O)N[C@H](CC(N)=O)C(=O)N[C@@H](CO)C(=O)N1 (stereo partly shown) [Iturin A5, iturin A5] (cyclo(N[dY][dN]QP[dN]S[X5]))
- MIC [1]: 25 mg/L (≈ 23.6 µM)

SMILES: CCCCCCCCCCCCCC1CC(=O)N[C@@H](CC(N)=O)C(=O)N[C@H](Cc2ccc(O)cc2)C(=O)N[C@H](CC(N)=O)C(=O)N[C@@H](CCC(N)=O)C(=O)N2CCC[C@H]2C(=O)N[C@H](CC(N)=O)C(=O)N[C@@H](CO)C(=O)N1 (stereo partly drawn) [Iturin A7, iturin A7] (cyclo(N[dY][dN]QP[dN]S[ξβ3hGly(tridecyl)]))
- MIC [1]: 6.25 mg/L (≈ 5.83 µM)

SMILES: CC(C)CCCCCCCCC[C@@H]1CC(=O)N[C@@H](CC(N)=O)C(=O)N[C@H](Cc2ccc(O)cc2)C(=O)N[C@H](CC(N)=O)C(=O)N[C@@H](CCC(N)=O)C(=O)N2CCC[C@H]2C(=O)N[C@H](CC(N)=O)C(=O)N[C@@H](CO)C(=O)N1 [Iturin A4, iturin A4] (cyclo(N[dY][dN]QP[dN]S[X2]))
- MIC (μg/ml) of Iturin A4 [2]: 1.56 µg/mL
- MIC (μg/ml) of Iturin A4 [3]: 2.4 µg/mL
- MIC (μg/ml) of Iturin A4 [4]: 0.78 µg/mL
- MIC (μg/ml) of Iturin A4 [5]: 6.25 µg/mL
- MIC (μg/ml) of Iturin A4 [6]: 1.2 µg/mL
- MIC (μg/ml) of Iturin A4 [7]: 6.25 µg/mL
- MIC (μg/ml) of Iturin A4 [8]: 6.25 µg/mL
- MIC (μg/ml) of Iturin A4 [9]: < 0.05 µg/mL
- MIC (μg/ml) of Iturin A4 [10]: 25 µg/mL
- MIC (μg/ml) of Iturin A4 [11]: 3.13 µg/mL
- Mortality (%) [12]: 0%
- Time-Dependent Mortality ([12]; 14 days): 0/5
- Time-Dependent Mortality ([12]; day 1): 0/5
- Mortality (%) ([13]; female mice): 0%
- Time-Dependent Mortality ([13]; female mice): 0/5
- LD50 (mg/kg) ([13]; female mice): > 2,000 mg/kg
- Mortality (%) ([13]; male mice): 0%
- Time-Dependent Mortality ([13]; male mice): 0/5
- LD50 (mg/kg) ([13]; male mice): > 2,000 mg/kg
- time until vitality came back to normal after the administration [13, 15]: 2 h
- vitality of the test mice just after the administration [13, 15]: lowered slightly
- MIC (μg/ml) of Iturin A4 ([1]; Candida albicans 7N (Table 6)): 25 µg/mL
- LD50 ([14]; single intravenous injection): > 200 mg/kg
- Mortality (%) ([14]; single intravenous injection 200 mg/kg): 0%
- Time-Dependent Mortality ([14]; single intravenous injection 200 mg/kg, day 1): 0/5

SMILES: CCC(C)CCCCCCCCC1CC(=O)N[C@@H](CC(N)=O)C(=O)N[C@H](Cc2ccc(O)cc2)C(=O)N[C@H](CC(N)=O)C(=O)N[C@@H](CCC(N)=O)C(=O)N2CCC[C@H]2C(=O)N[C@H](CC(N)=O)C(=O)N[C@@H](CO)C(=O)N1 (stereo partly shown) [Iturin A3, iturin A3] (cyclo(N[dY][dN]QP[dN]S[X3]))
- MIC [1]: 50 mg/L (≈ 47.3 µM)

The remaining lines, values ahead:

- MIC [1]: 50 mg/L (≈ 47.9 µM)
SMILES: CCCCCCCCCCCC1CC(=O)N[C@@H](CC(N)=O)C(=O)N[C@H](Cc2ccc(O)cc2)C(=O)N[C@H](CC(N)=O)C(=O)N[C@@H](CCC(N)=O)C(=O)N2CCC[C@H]2C(=O)N[C@H](CC(N)=O)C(=O)N[C@@H](CO)C(=O)N1 (stereo partly drawn) [Iturin A2, iturin A2] (cyclo(N[dY][dN]QP[dN]S[ξβ3hGly(undecyl)]))

- MIC [1]: 12.5 mg/L (≈ 11.5 µM)
SMILES: CCC(C)CCCCCCCCCCC1CC(=O)N[C@@H](CC(N)=O)C(=O)N[C@H](Cc2ccc(O)cc2)C(=O)N[C@H](CC(N)=O)C(=O)N[C@@H](CCC(N)=O)C(=O)N2CCC[C@H]2C(=O)N[C@H](CC(N)=O)C(=O)N[C@@H](CO)C(=O)N1 (stereo partly shown) [Iturin A8, iturin A8] (cyclo(N[dY][dN]QP[dN]S[X6]))

- MIC [1]: 12.5 mg/L (≈ 11.7 µM)
SMILES: CC(C)CCCCCCCCCCC1CC(=O)N[C@@H](CC(N)=O)C(=O)N[C@H](Cc2ccc(O)cc2)C(=O)N[C@H](CC(N)=O)C(=O)N[C@@H](CCC(N)=O)C(=O)N2CCC[C@H]2C(=O)N[C@H](CC(N)=O)C(=O)N[C@@H](CO)C(=O)N1 (stereo partly shown) [Iturin A6, iturin A6] (cyclo(N[dY][dN]QP[dN]S[X4]))

Reference: patent US5470827A, “Method of producing iturin A and antifungal agent for profound mycosis” (Higeta Shoyu Co., Ltd., priority 1993, dated 1995)
